One data set deals with B16 melanoma cells. The data set can be described thus: Cytotoxicity, survival ratio by Trypan blue staining. The format is cell-based. To be noted: 5-100 μM, 24 hours. How it is done: After 24 hours, the medium was replaced with Dulbecco-modified Eagle medium containing each sample. The incubation was continued under the same conditions for additional 24 hours. Then the cells were harvested by adding EDTA, washed with PBS and stained with 0.3% Trypan blue solution to thereby determine the survival ratio of the cells.

Data set [1] relates to α-Galactosidase (E. Coli, EC. 3.2.1.22). In words: α-Galactosidase enzyme inhibition assay (p-nitrophenyl α-D-galactopyranoside). As to conditions: pH 6.5, room temperature, 15 minutes. The class given is biochemical. How it is done:
(§1) By using a 96-well microplate, the absorbance (at 405 nm) of liberated p- or o-nitrophenol was measured with a microplate reader (MPR-4Ai, manufactured by Tosoh Corporation).
(§2) The enzymes employed herein [α-glucosidase (Baker's yeast), β-glucosidase (Almonds), α-galactosidase (E. coli), β-galactosidase (E. coli) and β-galactosidase (Bovine Liver)] were all purchased from Sigma.
(§3) The substrates (p- or o-nitrophenylglycoside) of these enzymes were all purchased from Sigma.
3) α-Galactosidase (E. Coli, EC. 3.2.1.22) [described in H. Suzuki, S-C. Li and Y-T. Li, J. Biol. Chem., 245, 781-786 (1970)]
Into each well were introduced an aqueous solution of a sample (1 μl), a buffer (74 μl), a 9.9 mM solution of p-nitrophenyl α-D-galactopyranoside in a buffer (20 μl) and a (50 μg/ml) enzyme solution in the buffer (5 μl) to give a total volume of 100 μl. After incubating the resulting mixture at room temperature (20°-30° C.) for 15 minutes, the reaction was ceased by adding a 0.2M borate buffer solution (pH 9.8, prepared from NaOH and H3 BO3, 100 μl). Then the absorbance (A405) of p-nitrophenol liberated by this enzyme reaction was measured. To give the blank absorbance (Ablank), the sample (1 μl), the substrate (20 μl) and the buffer solution (79 μl) were incubated in the same manner and the 0.2M borate buffer solution (100 μl) was added followed by the measurement of the absorbance. To give the control absorbance ([…]), on the other hand, water (1 μl), the substrate (20 μl), the buffer solution (74 μl) and the enzyme solution (5 μl) were incubated in the same manner and the borate buffer solution (100 μl) was added followed by the measurement of the absorbance. A 0.1M phosphate buffer solution (pH 6.5, prepared from KH2 PO4 and K2 HPO4) was employed as the buffer for the enzyme reaction. The IC50 was determined in the same manner as employed in the case of α-glucosidase.

The target in data set [2] is T1, β-Galactosidase (E. Coli, EC. 3.2.1.23) (Escherichia coli, UniProt P00722).
T1 construct: purchased Sigma; host or cells: E. coli
T1 sequence (P00722 2-1024 limits assumed): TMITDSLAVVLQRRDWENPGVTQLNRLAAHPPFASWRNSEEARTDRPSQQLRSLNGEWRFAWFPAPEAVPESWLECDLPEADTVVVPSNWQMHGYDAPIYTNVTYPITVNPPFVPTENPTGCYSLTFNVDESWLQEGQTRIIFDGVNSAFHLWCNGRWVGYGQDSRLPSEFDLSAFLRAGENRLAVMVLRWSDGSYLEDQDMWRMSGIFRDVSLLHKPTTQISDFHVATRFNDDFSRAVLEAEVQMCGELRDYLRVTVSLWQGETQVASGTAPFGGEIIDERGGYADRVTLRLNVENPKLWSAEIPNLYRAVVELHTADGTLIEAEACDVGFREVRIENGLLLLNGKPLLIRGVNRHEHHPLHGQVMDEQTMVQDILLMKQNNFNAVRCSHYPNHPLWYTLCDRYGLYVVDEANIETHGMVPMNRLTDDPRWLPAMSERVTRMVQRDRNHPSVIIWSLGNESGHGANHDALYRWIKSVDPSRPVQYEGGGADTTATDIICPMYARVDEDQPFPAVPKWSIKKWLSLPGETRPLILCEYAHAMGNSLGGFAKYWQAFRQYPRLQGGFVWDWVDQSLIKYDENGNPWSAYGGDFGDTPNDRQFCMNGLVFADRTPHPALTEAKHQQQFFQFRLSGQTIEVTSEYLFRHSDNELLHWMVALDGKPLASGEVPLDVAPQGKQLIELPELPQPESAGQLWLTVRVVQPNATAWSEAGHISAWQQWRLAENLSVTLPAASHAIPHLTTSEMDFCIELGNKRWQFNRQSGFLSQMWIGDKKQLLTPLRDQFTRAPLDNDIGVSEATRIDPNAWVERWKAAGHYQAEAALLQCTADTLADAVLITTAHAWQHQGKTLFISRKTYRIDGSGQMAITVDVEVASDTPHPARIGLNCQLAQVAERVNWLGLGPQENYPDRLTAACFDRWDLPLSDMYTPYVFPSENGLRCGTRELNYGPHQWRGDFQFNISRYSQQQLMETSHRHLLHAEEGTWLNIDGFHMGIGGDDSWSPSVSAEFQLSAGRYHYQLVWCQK
The data set can be described thus: β-Galactosidase (E. coli) enzyme inhibition assay (o-nitrophenyl β-D-galactopyranoside). The format is biochemical. To be noted: pH 7.3, room temperature, 30 minutes; read-out: IC50 (M) β-Galactosidase (E. coli). How it is done: as §1, §2, §3
4) β-Galactosidase (E. Coli, EC. 3.2.1.23) [described in G. R. Craven, E. Steers, Jr. and C. B. Anfinsen, J. Biol. Chem., 240, 2468-2477 (1965)]
Into each well were introduced an aqueous solution of a sample (2 μl), a buffer (153 μl), a 20 mM solution of o-nitrophenyl β-D-galactopyranoside in a buffer (25 μl), a 100 mM 2-mercaptoethanol (10 μl) and a (10 μg/ml) enzyme solution in the buffer (10 μl) to give a total volume of 200 μl. After incubating at room temperature (20°-30° C.) for 30 minutes, the absorbance (A405) of o-nitrophenol liberated by this enzyme reaction was measured. To give the blank absorbance (Ablank), the sample (2 μl), the substrate (25 μl), the buffer solution (163 μl) and 2-mercaptoethanol (10 μl) were incubated in the same manner followed by the measurement of the absorbance. To give the control absorbance (Acontrol), on the other hand, water (2 μl), the substrate (25 μl), the buffer solution (153 μl), 2-mercaptoethanol (10 μl) and the enzyme solution (10 μl) were incubated in the same manner followed by the measurement of the absorbance. A 50 mM phosphate buffer solution (pH 7.3, prepared from KH2 PO4 and K2 HPO4, containing 1.3 mM of MgCl2) was employed as the buffer for the enzyme reaction. The IC50 was determined in the same manner as employed in the case of α-glucosidase.

The target in data set [3] is T2, α-Glucosidase (Baker's yeast, EC 3.2.1.20) (Saccharomyces cerevisiae, UniProt P53341).
T2 construct: purchased Sigma; host or cells: Baker's yeast
T2 sequence (P53341 whole entry): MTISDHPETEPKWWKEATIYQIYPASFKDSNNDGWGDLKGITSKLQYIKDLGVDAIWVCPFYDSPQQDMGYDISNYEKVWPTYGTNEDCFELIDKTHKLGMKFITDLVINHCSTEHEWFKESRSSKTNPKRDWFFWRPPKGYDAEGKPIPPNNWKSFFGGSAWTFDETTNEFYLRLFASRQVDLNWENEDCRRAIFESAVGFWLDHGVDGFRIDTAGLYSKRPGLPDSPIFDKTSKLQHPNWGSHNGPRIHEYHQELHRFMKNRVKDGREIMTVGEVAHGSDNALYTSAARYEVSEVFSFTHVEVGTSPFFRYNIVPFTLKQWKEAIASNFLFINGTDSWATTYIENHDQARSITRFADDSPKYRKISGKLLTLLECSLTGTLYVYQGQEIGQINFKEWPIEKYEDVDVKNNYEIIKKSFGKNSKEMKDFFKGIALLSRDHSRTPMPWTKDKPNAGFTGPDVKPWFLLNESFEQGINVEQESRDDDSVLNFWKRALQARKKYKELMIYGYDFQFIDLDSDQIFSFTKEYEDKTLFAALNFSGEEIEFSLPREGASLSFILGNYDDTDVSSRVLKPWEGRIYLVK
In words: α-Glucosidase enzyme inhibition assay (p-nitrophenyl α-D-glucopyranoside). The class given is biochemical. As to conditions: compared with deoxynojirimycin; summary of Tables 1 and 2. How it is done: as §1
(§4) Incubation was carried out at 37° C. by using a natural incubator (Compact NIB-10, manufactured by Iwaki Glass Co., Ltd.).
as §2, §3
1) α-Glucosidase (Baker's yeast, EC 3.2.1.20) [described in H. Halvorson and L. Ellias, Biochim. Biophys. Acta, 30, 28-40 (1958)]
Into each well were introduced an aqueous solution of a sample (1 μl), a 0.66 mM solution of p-nitrophenyl α-D-glucopyranoside in a buffer (98 μl) and a (0.4 mg/ml) enzyme solution in the buffer (1 μl) to give a total volume of 100 μl. After incubating at 37° C. for 30 minutes, the reaction was ceased by adding a 1M aqueous solution of sodium carbonate (100 μl). Then the absorbance (A405) of p-nitrophenol liberated by this enzyme reaction was measured. To give the blank absorbance (Ablank), the sample (1 μl) and the substrate (99 μl) were incubated in the same manner and an aqueous solution of sodium carbonate (100 μl) was added followed by the measurement of the absorbance. […] The sample at each concentration, the blank and the control were treated each in two wells at the same time. As the buffer, a 0.1M phosphate buffer solution (pH 6.8, prepared from KH2 PO4 and K2 HPO4) was employed.

In data set [4] the target is β-Glucosidase (Almonds, EC 3.2.1.21). The data set can be described thus: β-Glucosidase enzyme inhibition assay (p-nitrophenyl β-D-glucopyranoside). The class given is biochemical. How it is done: as §1, §4, §2, §3
2) β-Glucosidase (Almonds, EC 3.2.1.21) [described in A. Kobayashi, Agr. Biol. Chem., 26, 203-207 (1962)]
Into each well were introduced an aqueous solution of a sample (1 μl), a 0.33 mM solution of p-nitrophenyl β-D-glucopyranoside in a buffer (98 μl) and a (0.4 mg/ml) enzyme solution in the buffer (1 μl) to give a total volume of 100 μl. After incubating at 37° C. for 45 minutes, the reaction was ceased by adding a 1M aqueous solution of sodium carbonate (100 μl). Then the absorbance (A405) of p-nitrophenol liberated by this enzyme reaction was measured. To give the blank absorbance (Ablank), the sample (1 μl) and the substrate (99 μl) were incubated in the same manner and an aqueous solution of sodium carbonate (100 μl) was added followed by the measurement of the absorbance. […] As the buffer, a 0.1M acetate buffer solution (pH 5.0, prepared from NaOAc and AcOH) was employed. The IC50 was determined in the same manner as employed in the case of α-glucosidase.

A value given as a limit tells only on which side of the number the result lay.

One may read the IC50 as the concentration that inhibits the measured activity by half. On to `OC[C@@]12OC(Nc3ccccc3)=N[C@@H]1[C@H](O)[C@@H](O)[C@@H]2O` [Compound 1-2L, (1S,5R,6S,7R,8S)-1-hydroxymethyl-3-phenylamino-2-oxa-4-azabicyclo[3.3.0]oct-3-ene-6,7,8-triol], for which the “cytotoxicity (in words)” value with B16 melanoma cells was “no cytotoxicity”. Besides, the half-maximal inhibitory concentration (IC50) in data set [1] was above 300 µM; in data set [2], above 0.0003 M; in data set [4] (pH 5.0, 37° C., 45 minutes), above 300 µM. Moreover, the “inhibitory activity against α-glucosidase (in words)” value in data set [3] is “remarkably strong inhibitory activities”. Besides, the “inhibitory activity against β-glucosidase (in words)” value in data set [4] (summary of Table 1) is given as “weak inhibitory activities”.

The values above are taken from patent US5684026A, “Aminocyclopentane derivative” (priority 1994, dated 1997).
